Source: US20230272464A1, “MODIFIED NUCLEOTIDES AND METHODS FOR DNA AND RNA POLYMERIZATION AND SEQUENCING” (SeNA Research, Incorporated, priority 2019, published 2023)

Legend:
Format in all cases: biochemical
[1] = PCR of two target fragments with added 2-Se-TTP (agarose gel); conditions: target fragments 268bp, 405bp; 2-Se-TTP additionally added
Description: No bands were found in two blank groups. Thus, incorporation of 2-Se-TTP can effectively reduce the non-specific bands in PCR.

DNA polymerase = DNA polymerase (Escherichia coli, UniProt P00582); assay: Misincorporation of 2-Se-TTP: extension with each dNTP except dCTP; conditions: dCTP not present; up to 30 minutes
Method: Experiments to examine the misincorporation of 2-Se-TTP were conducted as follows. Broadly, enzymatic extension reactions were performed using each naturally occurring dNTP except dCTP, knowing that misincorporations of TTP in place of dCTP are commonly the cause of decreased fidelity in DNA replications.

[2] = target: Klenow fragment of DNA polymerase I (Escherichia coli, UniProt P00582); assay: Polymerization using TTP or 2-Se-TTP (denatured PAGE)
Description: The 30-nt DNA products made from the polymerization using TTP and 2-Se-TTP refer to full-length product in FIGS. 2B and 2C, respectively. […] Results of thermal dynamic calculation (FIG. 18) are consistent with the denatured PAGE. The initial reaction rate ratio (TTP vs 2-Se-TTP) was around 1.24.

Taq DNA polymerase = Taq DNA polymerase (Thermus aquaticus, UniProt P19821); assay: PCR with dNTPαS I: suppression of nonspecific product
Description: Compared to Bst DNA polymerase, Taq DNA polymerase is used much more widely, such as in polymerase chain reaction (PCR).
To test universality of suppression effect of dNTPαS I on nonspecific product, we checked 5 new pairs of primers (primer pair a, b, c, d, e) and 3 types of templates (plasmid, total human cDNA and human genome) with native dNTPs or S-modified dNTPs (FIG. 13). […] Further, S-dNTP can inhibit nonspecific amplification and increase specific product when amplifying simple plasmid template (FIG. 13B). Furthermore, when amplifying complex template (cDNA or genome), reactions using S-dNTP could exact specific product which can not be synthesized using all native dNTPs (FIG. 13B).

[3] = plasmid and total cDNA templates

Sequence of Taq DNA polymerase (P19821 whole entry): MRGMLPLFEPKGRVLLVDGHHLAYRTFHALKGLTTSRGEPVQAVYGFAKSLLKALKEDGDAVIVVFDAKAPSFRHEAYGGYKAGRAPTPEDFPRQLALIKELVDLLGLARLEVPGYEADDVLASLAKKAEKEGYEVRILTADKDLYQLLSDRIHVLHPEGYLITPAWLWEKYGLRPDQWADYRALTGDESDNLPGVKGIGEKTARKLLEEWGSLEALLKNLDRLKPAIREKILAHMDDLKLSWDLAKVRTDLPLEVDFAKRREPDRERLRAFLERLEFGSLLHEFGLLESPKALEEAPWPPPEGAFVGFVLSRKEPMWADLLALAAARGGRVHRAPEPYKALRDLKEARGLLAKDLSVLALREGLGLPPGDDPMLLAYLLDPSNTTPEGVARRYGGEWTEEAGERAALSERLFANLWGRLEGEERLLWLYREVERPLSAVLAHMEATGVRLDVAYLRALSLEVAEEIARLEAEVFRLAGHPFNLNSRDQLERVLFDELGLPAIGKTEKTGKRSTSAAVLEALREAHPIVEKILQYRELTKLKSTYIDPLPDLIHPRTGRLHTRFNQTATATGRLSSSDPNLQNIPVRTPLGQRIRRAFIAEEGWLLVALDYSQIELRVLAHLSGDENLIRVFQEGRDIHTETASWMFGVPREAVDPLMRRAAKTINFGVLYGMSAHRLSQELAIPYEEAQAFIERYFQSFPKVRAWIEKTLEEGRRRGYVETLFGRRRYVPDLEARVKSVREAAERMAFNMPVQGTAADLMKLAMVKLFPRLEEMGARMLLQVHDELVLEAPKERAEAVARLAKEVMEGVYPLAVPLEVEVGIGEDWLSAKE
Sequence of Klenow fragment of DNA polymerase I (P00582 324-928): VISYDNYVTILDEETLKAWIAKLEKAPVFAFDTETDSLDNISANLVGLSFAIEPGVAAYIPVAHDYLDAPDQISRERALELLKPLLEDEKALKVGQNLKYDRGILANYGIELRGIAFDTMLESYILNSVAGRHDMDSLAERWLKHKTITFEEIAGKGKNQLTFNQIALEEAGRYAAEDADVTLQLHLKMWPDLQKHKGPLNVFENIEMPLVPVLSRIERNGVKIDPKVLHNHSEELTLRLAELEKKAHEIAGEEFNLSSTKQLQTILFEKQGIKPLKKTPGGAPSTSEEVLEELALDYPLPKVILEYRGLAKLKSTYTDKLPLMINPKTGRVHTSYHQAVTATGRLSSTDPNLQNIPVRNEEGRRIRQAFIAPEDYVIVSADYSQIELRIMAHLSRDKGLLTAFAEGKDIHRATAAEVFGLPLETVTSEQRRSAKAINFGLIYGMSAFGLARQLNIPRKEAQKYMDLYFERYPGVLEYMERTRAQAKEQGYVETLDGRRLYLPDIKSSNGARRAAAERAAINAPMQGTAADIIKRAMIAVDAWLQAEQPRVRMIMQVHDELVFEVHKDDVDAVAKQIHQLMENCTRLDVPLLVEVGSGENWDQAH
Sequence of DNA polymerase (P00582 324-928): as above

SMILES	misincorporation in place of dCTP (full-length product) (DNA polymerase)	suppression of nonspecific product in PCR (Taq DNA polymerase; [3])	further results
Cc1cn([C@H]2C[C@H](O)[C@@H](COP(=O)(O)OP(=O)(O)OP(=O)(O)O)O2)c(=[Se])[nH]c1=O [Compound 2-Se-TTP, 2-Se-dTTP]	little to no full-length product	–	bands in PCR (nonspecific amplification) [1]: clean and specific bands; initial reaction rate ratio (TTP vs 2-Se-TTP) ([2]; Klenow fragment): around 1.24; recognition by the Klenow fragment ([2]; compared with TTP): relatively well recognized
Nc1ccn([C@H]2C[C@H](O)[C@@H](COP(O)(=S)OP(=O)(O)OP(=O)(O)O)O2)c(=O)n1 (some centres unmarked) [S-dCTP]	–	–	suppression of nonspecific product in PCR (Taq DNA polymerase; 5 primer pairs, plasmid, total human cDNA and human genome templates): nearly completely suppressed
Cc1cn([C@H]2C[C@H](O)[C@@H](COP(=O)(O)OP(=O)(O)OP(=O)(O)O)O2)c(=O)[nH]c1=O [TTP, reference compound]	incorporated into the DNA primer sequence in a significant amount	–	–
Nc1ccn([C@H]2C[C@H](O)[C@@H](COP(O)(=S)OP(=O)(O)OP(=O)(O)O)O2)c(=O)n1 (some centres unmarked) [dCTPαS I]	–	suppressed nonspecific product nearly completely	–
Nc1nc2c(ncn2C2CC(O)C(COP(O)(=[Se])OP(=O)(O)OP(=O)(O)O)O2)c(=O)[nH]1 (centres unmarked) [dGTPαSe I]	–	suppressed nonspecific product nearly completely	–
